# “Also recorded” adds a separate entry of the source.
# Key:
# hNek2 kinase = target: T1, hNek2 kinase (Homo sapiens, UniProt P51955); assay: ADP-Glo kinase assay, recombinant hNek2; type: biochemical
# T1 sequence (P51955 1-445): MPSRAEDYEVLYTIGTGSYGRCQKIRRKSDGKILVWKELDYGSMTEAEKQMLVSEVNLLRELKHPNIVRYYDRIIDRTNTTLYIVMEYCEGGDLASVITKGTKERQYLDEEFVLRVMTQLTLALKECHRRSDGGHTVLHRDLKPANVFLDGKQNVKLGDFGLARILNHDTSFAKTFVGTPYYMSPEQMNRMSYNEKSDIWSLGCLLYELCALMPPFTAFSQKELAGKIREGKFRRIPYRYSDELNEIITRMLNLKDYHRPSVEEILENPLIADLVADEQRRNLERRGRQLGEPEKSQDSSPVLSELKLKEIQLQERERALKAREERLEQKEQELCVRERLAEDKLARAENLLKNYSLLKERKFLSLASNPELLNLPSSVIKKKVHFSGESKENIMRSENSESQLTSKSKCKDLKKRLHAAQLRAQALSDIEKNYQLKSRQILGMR
# A549 lung cancer cells [1] = assay: MTT cell viability assay, A549; conditions: Homo sapiens, A549, read-out: Cell viability EC50, A549 (Figure 6A legend)
# A549 lung cancer cells [2] = assay: Wound-healing; conditions: 24 hr post-treatment, versus vehicle control
# [3] = tested on: pAkt (Ser-473) in A549 cells; assay: Western-blot analysis of pAkt; conditions: 24 h treatment, compared to DMSO
Loss of Nek2 inhibitory activity / increase of IC50 compared to V8 (hNek2 kinase),Selectivity towards Nek2 kinase over the other tested kinases (hNek2 kinase; versus other tested kinases (Table 1)),EC50 (A549 lung cancer cells [1]) [µM],SMILES,Mode of Nek2 inhibition (hNek2 kinase),Cell migration in wound-healing assay (A549 lung cancer cells [2]),Cellular levels of pAkt (Ser-473) [3]
> 13 fold,–,–,CS(=O)(=O)N1CCC2(CC1)NCC(=O)N2 [Compound V0-1],–,–,–
significant loss of potency,–,–,CN1CCC2(CC1)NCC(=O)N2 [Compound V0-3],–,–,–
–,9- to 13 fold,22.7 ± 0.2,CS(=O)(=O)N1CCC2(CC1)N=C(c1ccc(Br)cc1)C(=O)N2 [Compound V8],"competitive with respect to ATP, reversible, and selective; also recorded: selective, reversible and is not time dependent; also recorded: competitive inhibitor for ATP binding",migrated slower than the vehicle control; also recorded: Dose-dependent inhibiton of cell migration,reduced levels of pAkt (Ser-473) in a dose-dependent manner
